Consider 19 compounds from article PMC10978946, “Coumarin linked to 2-phenylbenzimidazole derivatives as potent α-glucosidase inhibitors” (Scientific Reports, 2024).

The structures appear in SMILES notation. Like-named read-outs stand apart in the source and are kept apart here.

For series [1], the target named is T1, α-Glucosidase (Saccharomyces cerevisiae, EC3.2.1.20) (Saccharomyces cerevisiae, UniProt P53341).
T1 construct: purchased Sigma-Aldrich
In words: biochemical. It is filed as biochemical. As to the method:
α-Glucosidase (Saccharomyces cerevisiae, EC3.2.1.20, 20 U/mg) and the substrate, […] (p-NPG) were purchased from Sigma-Aldrich, and the assay was performed exactly according to our previous report[34],[35].

The target of series [2] is T2, α-glucosidase (Saccharomyces cerevisiae, UniProt P53341).
T2 construct: purchased Sigma-Aldrich
In words: Enzyme kinetic studies (Lineweaver–Burk plot, secondary plot). In kind it is biochemical. Here is the method:
A Lineweaver–Burk plot was generated to identify the type of inhibition and Km value was determined from the plot between the reciprocal of the substrate concentration (1/[S]) and reciprocal of enzyme rate (1/V) over various inhibitor concentrations. Experimental Ki value was constructed by secondary plots of the inhibitor concentration [I] versus Km.

In series [3] the target is α-glucosidase. The conditions noted are these: cited from earlier work; for fold more potent than acarbose: literature coumarin derivatives versus acarbose.
The target in another series is yeast α-glucosidase. Further details: method as in PMID 26637946. As to conditions: compound D and its acarbose control; cited from earlier work.
Where [4] appears, read: supplement sheet IC50 values, unrounded, unit inferred.

T2 sequence (P53341 whole entry): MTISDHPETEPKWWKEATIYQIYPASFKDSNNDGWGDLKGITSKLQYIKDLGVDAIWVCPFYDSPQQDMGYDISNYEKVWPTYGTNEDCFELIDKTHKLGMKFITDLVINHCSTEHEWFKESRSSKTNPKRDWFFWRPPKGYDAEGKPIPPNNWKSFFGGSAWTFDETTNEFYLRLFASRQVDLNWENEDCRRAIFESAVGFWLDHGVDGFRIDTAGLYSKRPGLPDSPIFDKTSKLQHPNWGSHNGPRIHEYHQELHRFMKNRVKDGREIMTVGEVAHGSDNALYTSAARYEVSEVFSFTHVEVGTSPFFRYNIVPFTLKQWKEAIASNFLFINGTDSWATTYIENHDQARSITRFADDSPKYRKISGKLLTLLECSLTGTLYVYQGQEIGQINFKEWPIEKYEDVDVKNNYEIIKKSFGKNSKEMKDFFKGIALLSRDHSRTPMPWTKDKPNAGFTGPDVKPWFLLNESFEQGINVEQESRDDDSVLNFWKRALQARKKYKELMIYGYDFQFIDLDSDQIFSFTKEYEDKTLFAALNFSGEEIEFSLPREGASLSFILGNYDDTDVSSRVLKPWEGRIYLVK
T1 sequence (P53341 whole entry): as above

A word on the melting point: it is the temperature, or range, at which the solid turns liquid. Usually IC50 stands for the point on the concentration scale where inhibition reaches its midpoint. Regarding `O=C(Oc1ccc2ccc(=O)oc2c1)c1ccc2[nH]c(-c3ccccc3)nc2c1` [Compound 5a, 2-Oxo-2H-chromen-7-yl 2-phenyl-1H-benzo[d]imidazole-5-carboxylate], the melting point fell in the range of 180 to 183 °C. In series [1], this compound displayed an IC50 of 50 ± 0.8 µM. Moreover, the “fold better than acarbose” value in series [1] (ratio of IC50 values versus acarbose) is “approximately 15 fold”. This compound returned a half-maximal inhibitory concentration (IC50) in series [1] (setting [4]) of 50 µM.
For the compound `O=C(Oc1ccc2ccc(=O)oc2c1)c1ccc2[nH]c(-c3ccc(F)cc3)nc2c1` [Compound 5b, 2-Oxo-2H-chromen-7-yl 2-(4-fluorophenyl)-1H-benzo[d]imidazole-5-carboxylate], the melting point is 195 to 197 °C. Besides, the midpoint of inhibition in series [1], the IC50, lay at 30.6 ± 0.4 µM. For the same compound, it took 30.6 µM to reach half-maximal inhibition in series [1] (setting [4]) (IC50).
Compound `O=C(Oc1ccc2ccc(=O)oc2c1)c1ccc2[nH]c(-c3ccc(Cl)cc3)nc2c1` [Compound 5c, 2-Oxo-2H-chromen-7-yl 2-(4-chlorophenyl)-1H-benzo[d]imidazole-5-carboxylate] displayed a melting point of 180 to 182 °C. Also, the 50% inhibitory concentration (IC50) in series [1] amounted to 26.9 ± 1.1 µM. This compound had an IC50 in series [1] (setting [4]) of 26.9 µM.
For `O=C(Oc1ccc2ccc(=O)oc2c1)c1ccc2[nH]c(-c3ccc(Br)cc3)nc2c1` [Compound 5d, 2-Oxo-2H-chromen-7-yl 2-(4-bromophenyl)-1H-benzo[d]imidazole-5-carboxylate] the same measures were 179 to 181 °C, 22.9 ± 0.2 µM and 23 µM.
For `O=C(Oc1ccc2ccc(=O)oc2c1)c1ccc2[nH]c(-c3ccccc3Cl)nc2c1` [Compound 5e, 2-Oxo-2H-chromen-7-yl 2-(2-chlorophenyl)-1H-benzo[d]imidazole-5-carboxylate] the same measures were 189 to 191 °C, 34.7 ± 0.7 µM and 34.7 µM.
On to `O=C(Oc1ccc2ccc(=O)oc2c1)c1ccc2[nH]c(-c3cccc(Br)c3)nc2c1` [Compound 5f, 2-Oxo-2H-chromen-7-yl 2-(3-bromophenyl)-1H-benzo[d]imidazole-5-carboxylate], for which the melting point is 172 to 174 °C. Further, in series [1], the concentration for half-maximal inhibition (IC50) stood at 25.2 ± 0.5 µM. This compound also returned a concentration for half-maximal inhibition (IC50) in series [1] (setting [4]) of 25.2 µM.
For `O=C(Oc1ccc2ccc(=O)oc2c1)c1ccc2[nH]c(-c3ccc(F)cc3F)nc2c1` [Compound 5g, 2-Oxo-2H-chromen-7-yl 2-(2,4-difluorophenyl)-1H-benzo[d]imidazole-5-carboxylate] the same measures were 201 to 203 °C, 46.7 ± 0.2 µM and 46.7 µM.
Compound `O=C(Oc1ccc2ccc(=O)oc2c1)c1ccc2[nH]c(-c3cccc(Cl)c3Cl)nc2c1` [Compound 5h, 2-Oxo-2H-chromen-7-yl 2-(2,3-dichlorophenyl)-1H-benzo[d]imidazole-5-carboxylate] displayed a melting point of 182 to 184 °C. This compound also gave a half-maximal inhibitory concentration (IC50) in series [1] of 45.2 ± 0.2 µM. In addition, the IC50 in series [1] (setting [4]) came out at 45.3 µM.
For `Cc1ccc(-c2nc3cc(C(=O)Oc4ccc5ccc(=O)oc5c4)ccc3[nH]2)cc1` [Compound 5i, 2-Oxo-2H-chromen-7-yl 2-(p-tolyl)-1H-benzo[d]imidazole-5-carboxylate] the same measures were 193 to 195 °C, 44.9 µM and 44.9 µM.
Compound `COc1ccc(-c2nc3cc(C(=O)Oc4ccc5ccc(=O)oc5c4)ccc3[nH]2)cc1` [Compound 5j, 2-Oxo-2H-chromen-7-yl 2-(4-methoxyphenyl)-1H-benzo[d]imidazole-5-carboxylate] displayed a melting point of 169 to 171 °C. It took 40.3 ± 0.5 µM to reach half-maximal inhibition in series [1] (IC50).
The Ki is the equilibrium dissociation constant of an inhibitor or competing ligand from its target. As to `O=C(Oc1ccc2ccc(=O)oc2c1)c1ccc2[nH]c(-c3ccccc3O)nc2c1` [Compound 5k, 2-Oxo-2H-chromen-7-yl 2-(2-hydroxyphenyl)-1H-benzo[d]imidazole-5-carboxylate], the melting point lay within 187 to 189 °C. Also, on α-glucosidase [2] (Lineweaver–Burk plot, Km increased, Vmax unchanged), the inhibition pattern result is listed as “competitive inhibition pattern”. Besides, the inhibitory constant (Ki) on α-glucosidase [2] (from plot of Km versus inhibitor concentration, substrate p-nitrophenyl α-D-glucopyranoside 1–16 mM, read-out: inhibition constant (Ki)) came to 10.4 µM. For the same compound, the half-maximal inhibitory concentration (IC50) in series [1] turned out to be 10.8 ± 0.1 µM. In addition, the “fold more potent than compound 5d” value in series [1] (IC50 comparison 5k versus 5d) is “twofold”.
For `Cc1c(-c2nc3cc(C(=O)Oc4ccc5ccc(=O)oc5c4)ccc3[nH]2)cccc1[N+](=O)[O-]` [Compound 5l, 2-Oxo-2H-chromen-7-yl 2-(2-methyl-3-nitrophenyl)-1H-benzo[d]imidazole-5-carboxylate], the melting point lay within 194 to 196 °C. In series [1], half-maximal inhibition (IC50) was put at 119.5 ± 0.1 µM. Further, in series [1] (3-chloro replaced with 3-nitro), the “fold decrease of inhibitory activity versus compound 5m” value is given as “three folds”. This compound also gave an IC50 in series [1] (setting [4]) of 119 µM.
As to `Cc1c(Cl)cccc1-c1nc2cc(C(=O)Oc3ccc4ccc(=O)oc4c3)ccc2[nH]1` [Compound 5m, 2-Oxo-2H-chromen-7-yl 2-(3-chloro-2-methylphenyl)-1H-benzo[d]imidazole-5-carboxylate], the melting point was in the range of 182 to 184 °C. The same compound gave a 50% inhibitory concentration (IC50) in series [1] of 40.9 ± 1.1 µM. In series [1] (setting [4]), this compound registered an IC50 of 40.9 µM.
With `O=C(N/N=C/c1ccccc1O)c1cc2ccccc2oc1=O` [Compound A], on α-glucosidase [3] (Fig. 1, compound A and its acarbose control), the IC50 is 1.1 µM. Besides, in the series on α-glucosidase [3], the “fold more potent than acarbose” value is 35.8 fold.
Turning to `Cc1ccc(/C=C/C(=O)Oc2cc(=O)oc3ccccc23)cc1` [Compound B], on α-glucosidase [3] (Fig. 1, compound B and its ursolic acid control), the IC50 was 13 µM.
For `C/C(=N\OC(=O)/C=C/c1ccc(Br)cc1)c1cc2ccc(Br)cc2oc1=O` [Compound C], on α-glucosidase [3] (Fig. 1, compound C and its acarbose control), the half-inhibitory concentration (IC50) is 2.54 µM. Further, in the series on α-glucosidase [3], the “fold more potent than acarbose” value is 252 fold.
As for `Cc1cc2nc(-c3ccc(C(=O)N/N=C/c4cc(O)c(O)c(O)c4)cc3)[nH]c2cc1C` [Compound D], the IC50 on yeast α-glucosidase is 8.4 µM.
In the case of `COc1ccc(-c2nc3cc(C(=O)N/N=C/c4cccs4)ccc3[nH]2)cc1` [Compound E], on α-glucosidase [3] (Fig. 1, compound E and its acarbose control), the concentration for half-maximal inhibition (IC50) is 60.1 µM.
Regarding `COc1cc(-c2nc3ccccc3[nH]2)ccc1OCC(=O)Nc1ccc(F)cc1` [Compound F], the IC50 on α-glucosidase [3] (Fig. 1, compound F and its acarbose control) is 99.6 µM.
